Experimental data from PMC9366271 (Journal of medicinal chemistry, 2018).
Entries after “also recorded” stand apart in the source; their conditions may differ.

Key:
D2R [1] = target: D2R (Homo sapiens, UniProt P14416); assay: Dynamic mass redistribution; type: cell-based; conditions: 500 nM bivalent compounds or 1 μM spiperone for 30 min, then 100 nM sumanirole
D2R [2] = target: D2R (Ovis aries, UniProt A0ACI6R699); type: binding, sheep

D2R (Homo sapiens, UniProt P14416), sequence (P14416 whole entry): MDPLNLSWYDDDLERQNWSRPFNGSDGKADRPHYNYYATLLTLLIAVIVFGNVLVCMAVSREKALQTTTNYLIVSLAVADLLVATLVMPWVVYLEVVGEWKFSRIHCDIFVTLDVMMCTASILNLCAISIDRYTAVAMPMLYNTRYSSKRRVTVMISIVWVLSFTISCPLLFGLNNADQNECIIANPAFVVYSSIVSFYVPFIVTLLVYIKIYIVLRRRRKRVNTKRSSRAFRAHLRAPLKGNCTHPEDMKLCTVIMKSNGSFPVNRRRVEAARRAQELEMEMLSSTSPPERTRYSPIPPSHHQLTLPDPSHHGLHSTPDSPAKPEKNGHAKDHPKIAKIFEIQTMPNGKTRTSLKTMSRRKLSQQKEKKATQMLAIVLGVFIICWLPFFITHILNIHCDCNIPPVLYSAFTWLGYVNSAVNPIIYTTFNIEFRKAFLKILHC

| Structure (SMILES) | magnitude of the signaling by sumanirole in presence of ligand (DMR) (D2R [1]) | decrease of binding by disturber peptide TAT-TM6 (D2R [2]; TAT-TM6 of D2R vs no peptide) [fold] | effect of TAT-TM6 peptides on binding (D2R [2]; TAT-TM6 peptides of D2R and A2AR, native tissue) |
| --- | --- | --- | --- |
| COC(=O)CN(CC(=O)NCCCOCCOCCOCCCNC(=O)CCC(=O)Nc1ccc(CCN2CN(c3ccccc3)C3(CCN(CCCC(=O)c4ccc(F)cc4)CC3)C2=O)cc1)CC(=O)NCCCOCCOCCOCCCNC(=O)CCC(=O)Nc1ccc(CCN2CN(c3ccccc3)C3(CCN(CCCC(=O)c4ccc(F)cc4)CC3)C2=O)cc1 [Compound 12, Methyl 24-((4-(2-(8-(4-(4-fluorophenyl)-4-oxobutyl)-4-oxo-1-phenyl-1,3,8-triazaspiro[4.5]decan-3-yl)ethyl)phenyl)amino)-3-(21-((4-(2-(8-(4-(4-fluorophenyl)-4-oxobutyl)-4-oxo-1-phenyl-1,3,8-triazaspiro[4.5]decan-3-yl)ethyl)phenyl)amino)-2,18,21-trioxo-7,10,13-trioxa-3,17-diazahenicosyl)-5,21,24-trioxo-10,13,16-trioxa-3,6,20-triazatetracosanoate] | significantly decreased |  |  |
| COC(=O)CN(CC(=O)NCCOCCOCCNC(=O)CCC(=O)Nc1ccc(CCN2CN(c3ccccc3)C3(CCN(CCCC(=O)c4ccc(F)cc4)CC3)C2=O)cc1)CC(=O)NCCOCCOCCNC(=O)CCC(=O)Nc1ccc(CCN2CN(c3ccccc3)C3(CCN(CCCC(=O)c4ccc(F)cc4)CC3)C2=O)cc1 [Compound 13, Methyl 19-((4-(2-(8-(4-(4-fluorophenyl)-4-oxobutyl)-4-oxo-1-phenyl-1,3,8-triazaspiro[4.5]decan-3-yl)ethyl)phenyl)amino)-3-(16-((4-(2-(8-(4-(4-fluorophenyl)-4-oxobutyl)-4-oxo-1-phenyl-1,3,8-triazaspiro[4.5]decan-3-yl)ethyl)phenyl)amino)-2,13,16-trioxo-6,9-dioxa-3,12-diazahexadecyl)-5,16,19-trioxo-9,12-dioxa-3,6,15-triazanonadecanoate] | significantly decreased | 52 |  |
| COC(=O)CN(CC(=O)NCCOCCOCCNC(C)=O)CC(=O)NCCOCCOCCNC(=O)CCC(=O)Nc1ccc(CCN2CN(c3ccccc3)C3(CCN(CCCC(=O)c4ccc(F)cc4)CC3)C2=O)cc1 [Compound 15, Methyl 3-(2,13-dioxo-6,9-dioxa-3,12-diazatetradecyl)-19-((4-(2-(8-(4-(4-fluorophenyl)-4-oxobutyl)-4-oxo-1-phenyl-1,3,8-triazaspiro[4.5]decan-3-yl)ethyl)phenyl)amino)-5,16,19-trioxo-9,12-dioxa-3,6,15-triazanonadecanoate] |  |  | had no effect; also recorded: Neither TAT-TM6 peptide of D2R nor A2R influenced the binding |
| O=C(CCCN1CCC2(CC1)C(=O)NCN2c1ccccc1)c1ccc(F)cc1 [spiperone, reference compound] | significantly decreased |  |  |
